Literature values as cited in patent US6464981B2, “Therapeutic agent for a cancer and method of screening the same, and health-care auxiliary food” (Orient Cancer Therapy Co., LTD, priority 2000, dated 2002).

Test system: cancer-carrying mice

CCCCCCCCCCCCCCCCCCCCCCCCCC(=O)N[C@@H](CO[C@H]1O[C@H](CO)[C@H](O)[C@H](O)[C@H]1O)[C@H](O)[C@H](O)CCCCCCCCCCCCCC [α-galactosylceramide]
activation of NKT cells: NKT cells are activated | elimination of cancer: elimination of cancer is not observed | metastasis of the cancer: metastasis of the cancer is suppressed
